In PubChem BioAssay (NCI):
Values joined by “and” are separate entries in the source; they are usually repeats but may differ in a detail not shown here. Equal entries are not always repeated.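 96-well plates; 48 h exposure; 5 concentrations. Endpoints by linear interpolation between flanking doses. Not reached: highest tested concentration assigned. Here, GI50 denotes the concentration required for 50% inhibition of growth. TGI: total growth inhibition.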

Assays:
Experiment in all cases: NCI tumour cell line growth inhibition, 48 h
786-0 renal = tested on: 786-0 renal
HCC-2998 colon = tested on: HCC-2998 colon
HL-60(TB) leukemia = tested on: HL-60(TB) leukemia
HOP-18 NSCLC = tested on: HOP-18 NSCLC
KM12 colon = tested on: KM12 colon
M14 melanoma = tested on: M14 melanoma
OVCAR-5 ovarian = tested on: OVCAR-5 ovarian
SF-295 CNS = tested on: SF-295 CNS
SNB-75 CNS = tested on: SNB-75 CNS
SNB-78 CNS = tested on: SNB-78 CNS

| Structure (SMILES) | TGI (786-0 renal) [µM] | GI50 (HCC-2998 colon) | TGI (HCC-2998 colon) | GI50 (HL-60(TB) leukemia) | TGI (HL-60(TB) leukemia) [µM] | TGI (HOP-18 NSCLC) [µM] | GI50 (KM12 colon) | TGI (KM12 colon) | TGI (M14 melanoma) [µM] | GI50 (OVCAR-5 ovarian) [µM] | GI50 (SF-295 CNS) | TGI (SF-295 CNS) | TGI (SNB-75 CNS) | GI50 (SNB-78 CNS) [nM] | TGI (SNB-78 CNS) | GI50 (786-0 renal) [µM] | GI50 (HOP-18 NSCLC) [nM] | GI50 (M14 melanoma) | TGI (OVCAR-5 ovarian) [µM] | GI50 (SNB-75 CNS) [µM] |
| --- | --- | --- | --- | --- | --- | --- | --- | --- | --- | --- | --- | --- | --- | --- | --- | --- | --- | --- | --- | --- |
| CC[C@@]1(O)C(=O)OCc2c1cc1n(c2=O)Cc2cc3cc(O)ccc3nc2-1 | 0.9 | 58.9 nM and 72.1 nM | 0.912 µM and 0.847 µM | 18.7 nM | 0.135 | 5.2 | 127 nM and 142 nM | 2.34 µM and 5.38 µM | 1.39 | 0.122 | 28.2 nM and 29 nM | 0.799 µM and 3.91 µM | 0.206 µM and 0.107 µM | 213 | 18.1 µM and > 100 µM | – | – | – | – | – |
| CCN(CC)CCN1C(=O)c2c(c3c4cccc(Cl)c4n(C4OC(CO)C(OC)C(O)C4O)c3c3[nH]c4c(Cl)cccc4c23)C1=O (stereo not drawn) | – | 0.104 nM and < 29.9 nM and < 10 nM | – | 309 nM and 36.6 nM | – | – | 0.316 nM and < 23.1 nM and < 10 nM | – | – | – | 0.169 nM | – | – | 47.5 | – | < 0.0001 | 102 | 0.565 nM and < 36.8 nM and < 14.5 nM | – | – |
| Cc1c(C(=O)/C=C/c2ccc([N+](=O)[O-])cc2)[n+](=O)c2ccccc2n1[O-] | > 100 | – | > 100 µM | – | 2.89 | > 100 | – | > 100 µM | > 100 | – | – | > 100 µM | > 100 µM | – | > 100 µM | – | – | – | > 100 | – |
| O=C(CC(=O)N1N=C(n2ccc3ccccc32)CC1c1ccccc1)Nc1ccccc1Cl (stereo not drawn) | > 100 | – | > 100 µM | – | > 100 | > 100 | – | > 100 µM | > 100 | – | – | > 100 µM | > 100 µM | – | > 100 µM | – | – | – | – | – |
| NC(=S)N/N=C/C(O[C@@H](/C=N/NC(N)=S)CO)n1cnc2c(N)ncnc21 (stereo partly drawn) | > 100 | – | > 100 µM | – | > 100 | > 100 | – | > 100 µM | > 100 | – | – | > 100 µM | > 100 µM | – | > 100 µM | – | – | – | > 100 | – |
| CC1CN1c1c(C(=O)/C=C/c2ccc(F)cc2)c(-c2ccccc2)nn(C)c1=O (stereo not drawn) | 29.2 | – | 28.7 µM | – | 43 | 33.2 | – | 29.4 µM | 30.5 | – | – | 30.2 µM | 28.7 µM | – | 67.3 µM | – | – | – | 25.2 | – |
| O=C(Nc1ccc(Nc2ccc(NC(=O)c3ccccc3)c3c2C(=O)c2ccccc2C3=O)c2c1C(=O)c1ccccc1C2=O)c1ccccc1 | > 100 | – | > 100 µM | – | > 100 | > 100 | – | > 100 µM | > 100 | – | – | – | > 100 µM | – | > 100 µM | – | – | – | – | – |
| CCP(C)(=O)CC | > 100 | – | > 100 µM | – | > 100 | > 100 | – | > 100 µM | > 100 | – | – | > 100 µM | > 100 µM | – | > 100 µM | – | – | – | > 100 | – |
| Nc1nc2c(ncn2C2OC(CO)C(O)C2O)c(=O)o1 (stereo not drawn) | > 100 | – | > 100 µM | – | > 100 | > 100 | – | > 100 µM | > 100 | – | – | > 100 µM | > 100 µM | – | > 100 µM | – | – | – | > 100 | – |
| N#CC(Cl)CS(=O)(=O)c1ccccc1 (stereo not drawn) | 30.5 | – | 29.4 µM | – | > 100 | 22 | – | 33.3 µM | 9.59 | – | – | 36.3 µM | 37.1 µM | – | 61.3 µM | – | – | – | 35.3 | – |
| Cc1cc(C)c([O-])c(-[n+]2c(-c3ccccc3)cc(-c3ccccc3)cc2-c2ccccc2)c1 | 19.7 | – | 13.6 µM | – | 4.16 | 16.2 | – | 13.1 µM | 18.3 | – | – | 17.1 µM | 17.5 µM | – | 27.7 µM | – | – | – | 18.4 | – |
| O=C1C=C(Nc2cc(Cl)ccc2Cl)c2ccccc2C1=O | > 100 | – | > 100 µM | – | 40.9 | 70 | – | 55.7 µM | 38.9 | – | – | 79.3 µM | 70.3 µM | – | > 100 µM | – | – | – | > 100 | – |
| CN(C)CC1CCCC/C1=N\OC(=O)c1ccccc1 (stereo not drawn) | > 100 | – | > 100 µM | – | > 100 | > 100 | – | > 100 µM | > 100 | – | – | > 100 µM | > 100 µM | – | > 100 µM | – | – | – | > 100 | – |
| CS(=O)(=O)ON1C(=O)c2ccc(N)cc2C1=O | > 100 | – | > 100 µM | – | 46.5 | > 100 | – | > 100 µM | > 100 | – | – | > 100 µM | > 100 µM | – | > 100 µM | – | – | – | > 100 | – |
| [CH3][Ge]([CH3])([CH2]CC#N)[S]c1ccccc1 | 32.8 | 38.5 nM | > 100 µM | 2200 nM | 11.9 | > 100 | 14600 nM | 33.5 µM | 43 | 17.8 | 16500 nM | 41.5 µM | 74 µM | 13500 | 61.8 µM | 17.1 | > 100000 | 18800 nM | 39.5 | 23.4 |
| COC12OCCN(C)C1=CC(=O)C1N=NCC12 (stereo not drawn) | > 100 | – | > 100 µM | – | > 100 | > 100 | – | > 100 µM | > 100 | – | – | > 100 µM | > 100 µM | – | > 100 µM | – | – | – | – | – |
| Nc1nc(N)c2c(Cl)c(CNc3ccc(Cl)c(Cl)c3)ccc2n1 | 8.39 | – | 2.05 µM | – | 2.75 | 17.1 | – | 3.19 µM | 3.87 | – | – | 12.2 µM | 18.4 µM | – | 25.4 µM | – | – | – | 12.1 | – |
| COc1c(CC(C)=O)c2ccccc2n1C(C)=O | > 100 | – | > 100 µM | – | > 100 | > 100 | – | > 100 µM | > 100 | – | – | > 100 µM | > 100 µM | – | > 100 µM | – | – | – | – | – |
| Cc1cc(NS(=O)(=O)c2ccc(NC(=O)c3cccc4c(Nc5ccc(S(=O)(=O)Nc6cc(C)on6)cc5)c5ccc(Cl)cc5nc34)cc2)no1 | > 100 | – | > 100 µM | – | > 100 | > 100 | – | > 100 µM | > 100 | – | – | > 100 µM | 65.2 µM | – | > 100 µM | – | – | – | > 100 | – |
